Experiment in all cases: Field trial with maize, herbicidal action
Assay type in all cases: in vivo

In one assay the test system is Lamium amplexicaule. To be noted: application 1-leaf stage, scoring 17 days after application. On the procedure:
(§1) Transgenic maize plants with a resistance to one or more herbicides (A) together with typical weed plants were grown in the open on 2×5 m plots under natural field conditions; alternatively, weed infestation occurred naturally when the maize plants were grown.
(§2) […] The damage to, and the development of, all aerial parts of the plants was recorded. Scoring was done on the basis of a percentage sale (100% action=all plants destroyed; 50% action=50% of the plants and green parts of the plants destroyed; 0% action=no recognizable effect=like control plot. The mean of the score values of in each case 4 plots was calculated.

The subject of a further assay is Lolium multiflorum. The conditions noted are these: 2.5 g of a.s./ha; application 2- to 4-leaf stage; scoring 26 days after application. On the procedure:
as §1, §2

A further assay deals with Fagopyrum esculentum. The conditions noted are these: 2.5 g of a.s./ha; application 2- to 4-leaf stage; scoring 26 days after application. On the procedure: as §1, §2
The test system of a further assay is Cassia obtusifolia. To be noted: 925 g of a.s./ha; application 3-leaf stage; scoring 21 days after application. How it is done:
as §1, §2

`O=C(O)CNCP(=O)(O)O` [(A2.1), N-(phosphonomethyl)glycine]: the “Herbicidal action (%) against Lamium amplexicaule” value in the assay on Lamium amplexicaule (400 g of a.s./ha) is listed as 75%; with Lamium amplexicaule (600 g of a.s./ha), 90%.

Regarding `COc1nc(C)nc(NC(=O)NS(=O)(=O)c2cc(I)ccc2C(=O)O)n1` [(B2.3), 4-iodo-2-(4-methoxy-6-methyl-1,3,5-triazin-2-ylcarbamoylsulfamoyl)benzoic acid], the “Herbicidal action (%) against Lolium multiflorum” value in the assay on Lolium multiflorum is 84%. Also, in the assay with Lamium amplexicaule (2.5 g of a.s./ha), the “Herbicidal action (%) against Lamium amplexicaule” value turned out to be 55%. The “Herbicidal action (%) against Fagopyron esculentum” value in the assay on Fagopyrum esculentum is listed as 85%.

With `CCC(CC)Nc1c([N+](=O)[O-])cc(C)c(C)c1[N+](=O)[O-]` [(B2.1), N-(1-ethylpropyl)-2,6-dinitro-3,4-xylidine], the “Herbicidal action (%) against Cassia obtusifolia” value in the assay with Cassia obtusifolia was 0%.

The record behind these values is US8772199B2, “Herbicidal compositions for tolerant or resistant maize crops” (Bayer Intellectual Property GmbH, priority 1998, dated 2014).
